Experimental data: the supplement of paper PMC8671470

test system: MV4-11; assay: cell viability (% survival relative to DMSO control); higher = less cytotoxic; settings: drug1 concentration 5 nM; drug2 concentration 500 nM; 72 h
Protocol: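 8x8 drug-combination matrices (0–5000 nM; rosiglitazone and lestaurtinib 0–1000 nM) were run in MV4-11 cells for 72 h with CellTiter-Glo read-out. Survival is normalised to DMSO and 10 µM bortezomib and clipped at 100%.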

Structure (SMILES)	cell viability
O=C(C1CC1)N1CC[C@@H](C=C2NNC(=O)N2c2ccc(-c3ccc4occc4c3)cc2)C1 + O=C(c1c2ccccc2cc2ccccc12)N1CCC(N2CCC[C@@H](C(=O)N3CCOCC3)C2)CC1 [CP-640186]	> 100%
CC(C)c1onc(-c2c(Cl)cccc2Cl)c1COc1ccc(/C=C/c2cccc(C(=O)O)c2)c(Cl)c1 [GW4064] + Cn1cc(-c2ccncc2)c(-c2ccc(OCc3ccc4ccccc4n3)cc2)n1 [PF-02545920]	> 100%

same assay, conditions: drug1 concentration 5 nM; drug2 concentration 1000 nM; 72 h

Structure (SMILES)	cell viability
O=C(C1CC1)N1CC[C@@H](C=C2NNC(=O)N2c2ccc(-c3ccc4occc4c3)cc2)C1 + CS(=O)(=O)N1CCN(Cc2cc3nc(-c4cccc5[nH]ncc45)nc(N4CCOCC4)c3s2)CC1 [Pictilisib]	91.9%
O=C(C1CC1)N1CC[C@@H](C=C2NNC(=O)N2c2ccc(-c3ccc4occc4c3)cc2)C1 + C[C@H](NC(=O)c1sccc1OCc1ccc(Cl)cc1)c1ccccc1 [as1949490]	> 100%
O=C(C1CC1)N1CC[C@@H](C=C2NNC(=O)N2c2ccc(-c3ccc4occc4c3)cc2)C1 + O=C(c1c2ccccc2cc2ccccc12)N1CCC(N2CCC[C@@H](C(=O)N3CCOCC3)C2)CC1 [CP-640186]	> 100%
CC(C)c1onc(-c2c(Cl)cccc2Cl)c1COc1ccc(/C=C/c2cccc(C(=O)O)c2)c(Cl)c1 [GW4064] + Cn1cc(-c2ccncc2)c(-c2ccc(OCc3ccc4ccccc4n3)cc2)n1 [PF-02545920]	> 100%

same assay, conditions: drug1 concentration 5 nM; drug2 concentration 5000 nM; 72 h

Structure (SMILES)	cell viability
O=C(C1CC1)N1CC[C@@H](C=C2NNC(=O)N2c2ccc(-c3ccc4occc4c3)cc2)C1 + CS(=O)(=O)N1CCN(Cc2cc3nc(-c4cccc5[nH]ncc45)nc(N4CCOCC4)c3s2)CC1 [Pictilisib]	76.5%
O=C(C1CC1)N1CC[C@@H](C=C2NNC(=O)N2c2ccc(-c3ccc4occc4c3)cc2)C1 + C[C@H](NC(=O)c1sccc1OCc1ccc(Cl)cc1)c1ccccc1 [as1949490]	77.3%
O=C(C1CC1)N1CC[C@@H](C=C2NNC(=O)N2c2ccc(-c3ccc4occc4c3)cc2)C1 + O=C(c1c2ccccc2cc2ccccc12)N1CCC(N2CCC[C@@H](C(=O)N3CCOCC3)C2)CC1 [CP-640186]	98.1%
CC(C)c1onc(-c2c(Cl)cccc2Cl)c1COc1ccc(/C=C/c2cccc(C(=O)O)c2)c(Cl)c1 [GW4064] + Cn1cc(-c2ccncc2)c(-c2ccc(OCc3ccc4ccccc4n3)cc2)n1 [PF-02545920]	48.9%

same assay, conditions: drug1 concentration 10 nM; drug2 concentration 5 nM; 72 h

Structure (SMILES)	cell viability
O=C(C1CC1)N1CC[C@@H](C=C2NNC(=O)N2c2ccc(-c3ccc4occc4c3)cc2)C1 + CS(=O)(=O)N1CCN(Cc2cc3nc(-c4cccc5[nH]ncc45)nc(N4CCOCC4)c3s2)CC1 [Pictilisib]	91.3%
O=C(C1CC1)N1CC[C@@H](C=C2NNC(=O)N2c2ccc(-c3ccc4occc4c3)cc2)C1 + C[C@H](NC(=O)c1sccc1OCc1ccc(Cl)cc1)c1ccccc1 [as1949490]	> 100%
O=C(C1CC1)N1CC[C@@H](C=C2NNC(=O)N2c2ccc(-c3ccc4occc4c3)cc2)C1 + O=C(c1c2ccccc2cc2ccccc12)N1CCC(N2CCC[C@@H](C(=O)N3CCOCC3)C2)CC1 [CP-640186]	96.1%
CC(C)c1onc(-c2c(Cl)cccc2Cl)c1COc1ccc(/C=C/c2cccc(C(=O)O)c2)c(Cl)c1 [GW4064] + Cn1cc(-c2ccncc2)c(-c2ccc(OCc3ccc4ccccc4n3)cc2)n1 [PF-02545920]	> 100%

same assay, conditions: drug1 concentration 10 nM; drug2 concentration 10 nM; 72 h

Structure (SMILES)	cell viability
O=C(C1CC1)N1CC[C@@H](C=C2NNC(=O)N2c2ccc(-c3ccc4occc4c3)cc2)C1 + CS(=O)(=O)N1CCN(Cc2cc3nc(-c4cccc5[nH]ncc45)nc(N4CCOCC4)c3s2)CC1 [Pictilisib]	89.1%
O=C(C1CC1)N1CC[C@@H](C=C2NNC(=O)N2c2ccc(-c3ccc4occc4c3)cc2)C1 + C[C@H](NC(=O)c1sccc1OCc1ccc(Cl)cc1)c1ccccc1 [as1949490]	> 100%
O=C(C1CC1)N1CC[C@@H](C=C2NNC(=O)N2c2ccc(-c3ccc4occc4c3)cc2)C1 + O=C(c1c2ccccc2cc2ccccc12)N1CCC(N2CCC[C@@H](C(=O)N3CCOCC3)C2)CC1 [CP-640186]	> 100%
CC(C)c1onc(-c2c(Cl)cccc2Cl)c1COc1ccc(/C=C/c2cccc(C(=O)O)c2)c(Cl)c1 [GW4064] + Cn1cc(-c2ccncc2)c(-c2ccc(OCc3ccc4ccccc4n3)cc2)n1 [PF-02545920]	> 100%

same assay, conditions: drug1 concentration 10 nM; drug2 concentration 50 nM; 72 h

Structure (SMILES)	cell viability
O=C(C1CC1)N1CC[C@@H](C=C2NNC(=O)N2c2ccc(-c3ccc4occc4c3)cc2)C1 + CS(=O)(=O)N1CCN(Cc2cc3nc(-c4cccc5[nH]ncc45)nc(N4CCOCC4)c3s2)CC1 [Pictilisib]	99.9%
O=C(C1CC1)N1CC[C@@H](C=C2NNC(=O)N2c2ccc(-c3ccc4occc4c3)cc2)C1 + C[C@H](NC(=O)c1sccc1OCc1ccc(Cl)cc1)c1ccccc1 [as1949490]	99%
O=C(C1CC1)N1CC[C@@H](C=C2NNC(=O)N2c2ccc(-c3ccc4occc4c3)cc2)C1 + O=C(c1c2ccccc2cc2ccccc12)N1CCC(N2CCC[C@@H](C(=O)N3CCOCC3)C2)CC1 [CP-640186]	98.5%
CC(C)c1onc(-c2c(Cl)cccc2Cl)c1COc1ccc(/C=C/c2cccc(C(=O)O)c2)c(Cl)c1 [GW4064] + Cn1cc(-c2ccncc2)c(-c2ccc(OCc3ccc4ccccc4n3)cc2)n1 [PF-02545920]	> 100%

same assay, conditions: drug1 concentration 10 nM; drug2 concentration 100 nM; 72 h

Structure (SMILES)	cell viability
O=C(C1CC1)N1CC[C@@H](C=C2NNC(=O)N2c2ccc(-c3ccc4occc4c3)cc2)C1 + CS(=O)(=O)N1CCN(Cc2cc3nc(-c4cccc5[nH]ncc45)nc(N4CCOCC4)c3s2)CC1 [Pictilisib]	96.8%
O=C(C1CC1)N1CC[C@@H](C=C2NNC(=O)N2c2ccc(-c3ccc4occc4c3)cc2)C1 + C[C@H](NC(=O)c1sccc1OCc1ccc(Cl)cc1)c1ccccc1 [as1949490]	80.4%
O=C(C1CC1)N1CC[C@@H](C=C2NNC(=O)N2c2ccc(-c3ccc4occc4c3)cc2)C1 + O=C(c1c2ccccc2cc2ccccc12)N1CCC(N2CCC[C@@H](C(=O)N3CCOCC3)C2)CC1 [CP-640186]	> 100%
CC(C)c1onc(-c2c(Cl)cccc2Cl)c1COc1ccc(/C=C/c2cccc(C(=O)O)c2)c(Cl)c1 [GW4064] + Cn1cc(-c2ccncc2)c(-c2ccc(OCc3ccc4ccccc4n3)cc2)n1 [PF-02545920]	> 100%

same assay, conditions: drug1 concentration 10 nM; drug2 concentration 500 nM; 72 h

Structure (SMILES)	cell viability
O=C(C1CC1)N1CC[C@@H](C=C2NNC(=O)N2c2ccc(-c3ccc4occc4c3)cc2)C1 + CS(=O)(=O)N1CCN(Cc2cc3nc(-c4cccc5[nH]ncc45)nc(N4CCOCC4)c3s2)CC1 [Pictilisib]	95.5%
O=C(C1CC1)N1CC[C@@H](C=C2NNC(=O)N2c2ccc(-c3ccc4occc4c3)cc2)C1 + C[C@H](NC(=O)c1sccc1OCc1ccc(Cl)cc1)c1ccccc1 [as1949490]	96.5%
O=C(C1CC1)N1CC[C@@H](C=C2NNC(=O)N2c2ccc(-c3ccc4occc4c3)cc2)C1 + O=C(c1c2ccccc2cc2ccccc12)N1CCC(N2CCC[C@@H](C(=O)N3CCOCC3)C2)CC1 [CP-640186]	91%
